Measurements published in patent US8435990B2, “Dihydropyrimidone amides as P2X7 modulators” (Roche Palo Alto LLC, priority 2009, dated 2013).

Biological target: T1, human P2X7 (Homo sapiens, UniProt Q99572)
T1 construct: 1321N1 cells stably expressing the full length human P2X7 gene (1321N1-hP2X7)
T1 sequence (Q99572 1-595): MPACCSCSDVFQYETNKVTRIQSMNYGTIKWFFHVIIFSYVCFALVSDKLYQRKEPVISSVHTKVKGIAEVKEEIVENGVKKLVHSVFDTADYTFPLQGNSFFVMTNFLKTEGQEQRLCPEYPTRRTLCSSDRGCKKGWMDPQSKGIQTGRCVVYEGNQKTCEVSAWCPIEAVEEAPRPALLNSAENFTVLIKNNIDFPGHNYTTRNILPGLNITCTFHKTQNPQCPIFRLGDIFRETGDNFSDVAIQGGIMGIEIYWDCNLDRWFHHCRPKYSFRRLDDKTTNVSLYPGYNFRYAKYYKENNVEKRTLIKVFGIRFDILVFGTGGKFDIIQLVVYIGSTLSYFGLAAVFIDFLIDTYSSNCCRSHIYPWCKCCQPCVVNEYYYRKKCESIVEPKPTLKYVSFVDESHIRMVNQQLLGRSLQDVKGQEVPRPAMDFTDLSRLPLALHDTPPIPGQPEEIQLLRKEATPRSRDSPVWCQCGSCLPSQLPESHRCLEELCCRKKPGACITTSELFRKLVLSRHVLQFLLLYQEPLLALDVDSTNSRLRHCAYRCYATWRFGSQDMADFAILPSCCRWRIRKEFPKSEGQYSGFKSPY
Test: P2X7 modulator pIC50 of Table 1 (assay not given; Intracellular Calcium Flux (FLIPR) Assay assumed)
Type: cell-based
Method: Intracellular Calcium Flux (FLIPR) Assay
Stock solutions of compounds were prepared from powders as a 10 mM DMSO stock solution. These solutions were stored at RT during the two week period of these experiments to prevent freeze-thaw of the DMSO stocks. The DMSO stocks were added to the appropriate assay buffer at a concentration of 10 μM, and then diluted serially to the final concentrations that were tested. No observable precipitate was formed at any time during this process. The aqueous solutions of compounds as well as ATP (Sigma A7699) and BzATP (Sigma B6396) were prepared fresh for each day of experiment.
1321N1 cells stably expressing the full length human P2X7 gene (1321N1-hP2X7) and HEK293 cells stably expressing the full length rat P2X7 gene (HEK293-rP2X7) were obtained from the Roche Cell Culture Facility. 1321N1-hP2X7 cells were grown in Dulbecco's Modified Eagle's Medium (DMEM) high glucose supplemented with 10% FBS and 250 μg/mL G418. HEK293-rP2X7 cells were grown in DMEM/F-12 supplemented with 10% FBS, 1 mM CaCl2, 2 mM MgCl2, 2 mM L-Glutamine and 500 μg/ml G418. Cells were split such that they never became >70% confluent.
On the day prior to the experiment, 1321N1-hP2X7 or HEK293-rP2X7 cells were released into suspension with calcium-free PBS+Versene and washed by centrifugation with calcium-free PBS to remove the Versene. Cells were resuspended in growth medium at a density of 2.5×10^5 cells/mL and seeded into black walled, clear bottom 96 well plates (50,000 cells/well) approximately 18 hr prior to intracellular calcium flux experiments.
On the day of the experiment, plates were washed with FLIPR buffer (calcium- and magnesium-free Hank's Balanced Salt Solution (HBSS) supplemented with 10 mM Hepes, 2.5 mM probenecid and 2 mM calcium chloride) using a BIO-TEK 96 channel plate washer and incubated with […] fluo-3 dye at 37° C. for one hr. The dye was then removed by plate washing and the cells were allowed to equilibrate for 20 min at room temperature with antagonist or vehicle (FLIPR buffer). Agonist (100 μM BzATP final concentration for hP2X7; 5μM BzATP final concentration or rP2X7) was added online with the FLIPR and fluorescence measurements made at 1 sec intervals for 60 sec followed by 3 sec intervals for a further 4 min (5 min total). A final addition of 5 μM ionomycin was made and the maximal BzATP-evoked fluorescence normalized to the maximal ionomycin-evoked fluorescence.

IC50 [nM]	Structure (SMILES)
53.7	CCc1c(NC(=O)C2=CN(C)C(=O)N[C@H]2c2ccc(F)cc2)ccc2nc(C)ccc12 [Compound 34, (S)-4-(4-Fluoro-phenyl)-1-methyl-2-oxo-1,2,3,4-tetrahydro-pyrimidine-5-carboxylic acid (5-ethyl-2-methyl-quinolin-6-yl)-amide]
14.3	CCn1nccc(-c2ccc(C)c(NC(=O)C3=CN(C)C(=O)N[C@H]3c3ccc(F)cc3)c2)c1=O [Compound 38, (S)-4-(4-Fluoro-phenyl)-1-methyl-2-oxo-1,2,3,4-tetrahydro-pyrimidine-5-carboxylic acid [5-(2-ethyl-3-oxo-2,3-dihydro-pyridazin-4-yl)-2-methyl-phenyl]-amide]
20.2	Cc1cc(Cl)c(OCCO)cc1NC(=O)C1=CN(C)C(=O)N[C@H]1c1cccc(F)c1 [Compound 30, (S)-4-(3-Fluoro-phenyl)-1-methyl-2-oxo-1,2,3,4-tetrahydro-pyrimidine-5-carboxylic acid [4-chloro-5-(2-hydroxy-ethoxy)-2-methyl-phenyl]-amide]
105	Cc1ccc(-n2ncccc2=O)cc1NC(=O)C1=CN(C)C(=O)N[C@H]1c1cccc(F)c1 [Compound 49, (S)-4-(3-Fluoro-phenyl)-1-methyl-2-oxo-1,2,3,4-tetrahydro-pyrimidine-5-carboxylic acid [2-methyl-5-(6-oxo-6H-pyridazin-1-yl)-phenyl]-amide]
15.5	Cc1ccc2c(C)c(NC(=O)C3=CN(C)C(=O)N[C@H]3c3ccc(F)cc3)ccc2n1 [Compound 65, (S)-4-(4-Fluoro-phenyl)-1-methyl-2-oxo-1,2,3,4-tetrahydro-pyrimidine-5-carboxylic acid (2,5-dimethyl-quinolin-6-yl)-amide]
57.9	Cc1cc(-c2ccc(C)c(NC(=O)C3=CN(C)C(=O)NC3c3cccc(F)c3)c2)n[nH]1 (stereo not shown) [Compound 14, 4-(3-Fluoro-phenyl)-1-methyl-2-oxo-1,2,3,4-tetrahydro-pyrimidine-5-carboxylic acid [2-methyl-5-(5-methyl-1H-pyrazol-3-yl)-phenyl]-amide]
36.3	Cc1ccc(-n2ncc(=O)n(C)c2=O)cc1NC(=O)C1=CN(C)C(=O)N[C@H]1c1cccc(F)c1 [Compound 37, (S)-4-(3-Fluoro-phenyl)-1-methyl-2-oxo-1,2,3,4-tetrahydro-pyrimidine-5-carboxylic acid [2-methyl-5-(4-methyl-3,5-dioxo-4,5-dihydro-3H-[1,2,4]triazin-2-yl)-phenyl]-amide]
63.1	CN1C=C(C(=O)Nc2cccc3c(=O)n(C)ccc23)[C@H](c2ccc(F)cc2)NC1=O [Compound 51, (S)-4-(4-Fluoro-phenyl)-1-methyl-2-oxo-1,2,3,4-tetrahydro-pyrimidine-5-carboxylic acid (2-methyl-1-oxo-1,2-dihydro-isoquinolin-5-yl)-amide]
359	COc1cc(C)c(NC(=O)C2=CNC(=O)N[C@@H]2c2ccc(F)cc2)cc1OC [Compound 10, (R)-4-(4-Fluoro-phenyl)-2-oxo-1,2,3,4-tetrahydro-pyrimidine-5-carboxylic acid (4,5-dimethoxy-2-methyl-phenyl)-amide]
34.7	COc1cc(C)c(NC(=O)C2=CNC(=O)NC2c2ccc(F)cc2)cc1OC (stereo not shown) [Compound 1, 4-(4-Fluoro-phenyl)-2-oxo-1,2,3,4-tetrahydro-pyrimidine-5-carboxylic acid (4,5-dimethoxy-2-methyl-phenyl)-amide]
24	CCN1C=C(C(=O)Nc2cc(OCCO)c(Cl)cc2C)[C@H](c2ccc(F)cc2)NC1=O [Compound 17, (S)-1-Ethyl-4-(4-fluoro-phenyl)-2-oxo-1,2,3,4-tetrahydro-pyrimidine-5-carboxylic acid [4-chloro-5-(2-hydroxy-ethoxy)-2-methyl-phenyl]-amide]
19.7	Cc1cc(-c2ccc(C)c(NC(=O)C3=CNC(=O)N[C@H]3c3ccc(F)cc3)c2)n[nH]1 [Compound 5, (S)-4-(4-Fluoro-phenyl)-2-oxo-1,2,3,4-tetrahydro-pyrimidine-5-carboxylic acid [2-methyl-5-(5-methyl-1H-pyrazol-3-yl)-phenyl]-amide]
37.6	Cc1ccc(-n2ccc(=O)n(C)c2=O)cc1NC(=O)C1=CN(C)C(=O)N[C@H]1c1ccc(F)cc1 [Compound 68, (S)-4-(4-Fluoro-phenyl)-1-methyl-2-oxo-1,2,3,4-tetrahydro-pyrimidine-5-carboxylic acid [2-methyl-5-(3-methyl-2,4-dioxo-3,4-dihydro-2H-pyrimidin-1-yl)-phenyl]-amide]
15	Cc1cc(Cl)c(OCCO)cc1NC(=O)C1=CN(C)C(=O)NC1c1ccccc1 (stereo not shown) [Compound 62, 1-Methyl-2-oxo-4-phenyl-1,2,3,4-tetrahydro-pyrimidine-5-carboxylic acid [4-chloro-5-(2-hydroxy-ethoxy)-2-methyl-phenyl]-amide]
160	Cc1ccc2[nH]c(=O)ccc2c1NC(=O)C1=CN(C)C(=O)N[C@H]1c1ccc(F)cc1 [Compound 31, (S)-4-(4-Fluoro-phenyl)-1-methyl-2-oxo-1,2,3,4-tetrahydro-pyrimidine-5-carboxylic acid (6-methyl-2-oxo-1,2-dihydro-quinolin-5-yl)-amide]
196	COc1cc(C)c(NC(=O)C2=CN(C)C(=O)N(C)C2c2ccc(F)cc2)cc1OC (stereo not shown) [Compound 9, 4-(4-Fluoro-phenyl)-1,3-dimethyl-2-oxo-1,2,3,4-tetrahydro-pyrimidine-5-carboxylic acid (4,5-dimethoxy-2-methyl-phenyl)-amide]
14.1	Cc1cnn(-c2ccc(C)c(NC(=O)C3=CN(C)C(=O)N[C@H]3c3ccc(F)cc3)c2)c1 [Compound 15, (S)-4-(4-Fluoro-phenyl)-1-methyl-2-oxo-1,2,3,4-tetrahydro-pyrimidine-5-carboxylic acid [2-methyl-5-(4-methyl-pyrazol-1-yl)-phenyl]-amide]
22.9	Cc1ccc(-c2cc(C)n(C[C@@H](O)CO)n2)cc1NC(=O)C1=CN(C)C(=O)N[C@H]1c1ccc(F)cc1 [Compound 19, (S)-4-(4-Fluoro-phenyl)-1-methyl-2-oxo-1,2,3,4-tetrahydropyrimidine-5-carboxylic acid {5-[1-((R)-2,3-dihydroxy-propyl)-5-methyl-1H-pyrazol-3-yl]-2-methyl-phenyl}-amide]
51.9	Cc1cc(Cl)c(-n2ncccc2=O)cc1NC(=O)C1=CN(C)C(=O)N[C@H]1c1ccc(F)cc1 [Compound 63, (S)-4-(4-Fluoro-phenyl)-1-methyl-2-oxo-1,2,3,4-tetrahydro-pyrimidine-5-carboxylic acid [4-chloro-2-methyl-5-(6-oxo-6H-pyridazin-1-yl)-phenyl]-amide]
40.7	COC[C@H](O)Cn1nc(-c2ccc(C)c(NC(=O)C3=CN(C)C(=O)N[C@H]3c3ccc(F)cc3)c2)ccc1=O [Compound 61, (S)-4-(4-Fluoro-phenyl)-1-methyl-2-oxo-1,2,3,4-tetrahydro-pyrimidine-5-carboxylic acid {5-[1-((R)-2-hydroxy-3-methoxy-propyl)-6-oxo-1,6-dihydro-pyridazin-3-yl]-2-methyl-phenyl}-amide]
35.1	Cc1cc(-c2ccc(C)c(NC(=O)C3=CN(C)C(=O)N[C@H]3c3ccc(F)cc3)c2)n[nH]1 [Compound 7, (S)-4-(4-Fluoro-phenyl)-1-methyl-2-oxo-1,2,3,4-tetrahydro-pyrimidine-5-carboxylic acid [2-methyl-5-(5-methyl-1H-pyrazol-3-yl)-phenyl]-amide]
53.1	CN1C=C(C(=O)Nc2cccc3c(=O)n(CCO)ccc23)[C@H](c2ccc(F)cc2)NC1=O [Compound 53, (S)-4-(4-Fluoro-phenyl)-1-methyl-2-oxo-1,2,3,4-tetrahydro-pyrimidine-5-carboxylic acid [2-(2-hydroxy-ethyl)-1-oxo-1,2-dihydro-isoquinolin-5-yl]-amide]
